As usually defined, the solubility is the concentration that dissolves in the medium under given conditions.

The results in this text go back to patent US20260248832A1, “COMPOSITION COMPRISING CYTIDINE ANALOGS AND USES AND METHODS THEREOF” (UNIVERSITÄT HEIDELBERG, priority 2022, published 2026).

Assay type in all cases: physicochemical
A short description of series [1]: Solubility of decitabine in different non-aqueous media. Particulars: DMSO. The procedure: Due to the unsuitability of aqueous media, different non-aqueous media were tested with regard to the solubility of decitabine in the non-aqueous media. As decitabine is a nucleoside, several polar, water-free solvents, that would be well suited for further formulation experiments, were selected to determine the solubility of decitabine. […] Therefore, the DMSO stock was chosen as the next candidate for stability and formulation testing.

The nature of series [2]: Long-term stability of decitabine in DMSO (HPLC). Particulars: 3 mM stock in DMSO; room temperature and 2-8° C.; almost three months. The procedure: (§1) Chem Res Toxicol 2009; 22 (6): 1194-204.
(§2) • 1. […] Immediate Injection • 3. […] Chem Res Toxicol 2009; 22 (6): 1194-204.
A 3 mM stock solution of decitabine in DMSO was prepared and one aliquot each was stored at room temperature and at 2-8° C. Its β-decitabine concentration was determined by HPLC for almost three months.

Series [3] in a line: Stability of decitabine in aqueous media (HPLC). Particulars: DMSO stock mixed 1:2 with 20 mM ammonium acetate pH 6.8; room temperature (about 25° C.); up to 14 days. The procedure: as §1, §2
To test the stability of β-decitabine in an aqueous medium, two stock solutions of β-decitabine in DMSO were prepared and mixed 1:2 with the HPLC mobile phase (20 mM ammonium acetate pH 6.8). The samples were stored at room temperature (about 25° C.) and their content of β-decitabine, which is considered to represent the active anomer of decitabine, was measured for up to 14 days.

Each structure is given as a SMILES string. Converted amounts (≈) assume the structure as drawn.

For the molecule `Nc1ncn([C@H]2C[C@H](O)[C@@H](CO)O2)c(=O)n1` [decitabine, 5-aza-2′-deoxycytidine], the solubility in series [1] (organic solvent or mixture) was roughly 46 mg/mL (≈ 202 mM). Also, in series [1] (four tested solvents: glycerol, PEG 300, absolute ethanol), the “solubility of decitabine for relevant dosage strengths” value is listed as “only DMSO showed sufficient solubility”. For the same molecule, the “change in β-decitabine concentration in DMSO” value in series [2] is listed as “almost no change”. For the same molecule, the “stability of β-decitabine in aqueous medium” value in series [3] was “observed instability”.
